The text below walks through data of ChEMBL document CHEMBL5316326, “Discovery of a Novel Covalent EZH2 Inhibitor Based on Tazemetostat Scaffold for the Treatment of Ovarian Cancer” (J Med Chem, 2023).

Structures are written as SMILES. Active and inactive are the calls of the source. The rule behind the calls is not given here. Where only a bound is given, the exact number is not on record here.

The target of test [1] is T1, Histone-lysine N-methyltransferase EZH2 (Homo sapiens, UniProt Q15910). Description: Binding affinity to wild type recombinant EZH2 (494 to 737 residues) (unknown origin) expressed in Escherichia coli assessed as adduct formation incubated for 2 hrs by LC-MS analysis.
Target sequence in this assay (Q15910 whole entry, looked up, the tested form may be a part): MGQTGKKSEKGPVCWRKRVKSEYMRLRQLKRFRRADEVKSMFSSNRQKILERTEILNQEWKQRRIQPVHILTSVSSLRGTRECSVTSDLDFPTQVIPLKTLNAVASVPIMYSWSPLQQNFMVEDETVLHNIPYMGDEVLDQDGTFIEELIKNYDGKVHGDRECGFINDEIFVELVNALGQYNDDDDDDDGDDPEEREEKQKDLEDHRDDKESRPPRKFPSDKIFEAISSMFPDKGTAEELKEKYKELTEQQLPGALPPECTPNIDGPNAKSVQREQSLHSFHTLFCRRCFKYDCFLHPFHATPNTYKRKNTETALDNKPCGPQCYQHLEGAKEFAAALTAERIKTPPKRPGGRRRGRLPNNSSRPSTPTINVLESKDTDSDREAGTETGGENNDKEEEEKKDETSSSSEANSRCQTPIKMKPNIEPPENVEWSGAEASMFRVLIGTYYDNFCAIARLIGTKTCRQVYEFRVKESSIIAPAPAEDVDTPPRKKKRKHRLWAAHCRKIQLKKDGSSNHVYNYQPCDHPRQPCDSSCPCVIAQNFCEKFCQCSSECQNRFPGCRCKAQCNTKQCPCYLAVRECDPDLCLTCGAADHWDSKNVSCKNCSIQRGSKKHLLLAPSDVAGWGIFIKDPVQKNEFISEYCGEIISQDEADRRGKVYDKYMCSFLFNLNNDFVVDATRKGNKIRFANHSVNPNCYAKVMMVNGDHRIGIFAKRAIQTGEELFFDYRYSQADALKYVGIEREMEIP
Test [2] has as its target T1, Histone-lysine N-methyltransferase EZH2. Description: Inhibition of wild type EZH2 (unknown origin) by AlphaLlSA assay.
Target sequence in this assay (Q15910 whole entry, the tested form may be a part): as the sequence (Q15910 whole entry, looked up, the tested form may be a part) above
Test [3] deals with A2780. Description: Antiproliferative activity against human A2780 cells assessed as inhibition of cell proliferation incubated for 72 hrs by MTT assay. In kind it is functional, cell-based. Conditions: A2780, 72 h. (Formazan colour is commonly taken as a measure of viable cells.)
In test [4] the test system is ES-2. The test can be described thus: Antiproliferative activity against human ES2 cells assessed as inhibition of cell proliferation incubated for 72 hrs by MTT assay. In kind it is functional, cell-based. Conditions: ES-2, 72 h.
Test [5] concerns HEY. The test can be described thus: Antiproliferative activity against human HEY cells assessed as inhibition of cell proliferation incubated for 72 hrs by MTT assay. It counts as functional, cell-based.
Test [6] deals with OAW-42. The test can be described thus: Antiproliferative activity against human OAW-42 cells assessed as inhibition of cell proliferation incubated for 72 hrs by MTT assay. It counts as functional, cell-based. Particulars: OAW-42, 72 h.
In test [7] the test system is SK-BR-3. Description: Antiproliferative activity against human SK-BR-3 cells assessed as inhibition of cell proliferation incubated for 72 hrs by MTT assay. In kind it is functional, cell-based. Particulars: SK-BR-3, 72 h.
Test [8] relates to PA-1. The test can be described thus: Antiproliferative activity against human PA-1 cells assessed as inhibition of cell proliferation incubated for 72 hrs by MTT assay. It counts as functional, cell-based. Conditions: PA-1, 72 h.
In test [9] the test system is A549. Description: Antiproliferative activity against human A549 cells assessed as inhibition of cell proliferation incubated for 72 hrs by MTT assay. In kind it is functional, cell-based. Particulars: A549, 72 h.
The test system of test [10] is SK-OV-3. Description: Antiproliferative activity against human SK-OV-3 cells assessed as inhibition of cell proliferation incubated for 72 hrs by MTT assay. In kind it is functional, cell-based. Conditions: SK-OV-3, 72 h.
The test system of test [11] is OVCAR-3. The test can be described thus: Antiproliferative activity against human OVCAR-3 cells assessed as inhibition of cell proliferation incubated for 72 hrs by MTT assay. In kind it is functional, cell-based. Particulars: OVCAR-3, 72 h.
Test [12] deals with NCI-H1703. Description: Antiproliferative activity against human NCI-H1703 cells assessed as inhibition of cell proliferation incubated for 72 hrs by MTT assay. It counts as functional, cell-based. Particulars: NCI-H1703, 72 h.
The nature of test [13]: Antiproliferative activity against human COV362 cells assessed as inhibition of cell proliferation incubated for 72 hrs by MTT assay. Particulars: COV362, 72 h. In kind it is functional, cell-based.
For test [14], the system named is MCF7. Description: Antiproliferative activity against human MCF7 cells assessed as inhibition of cell proliferation incubated for 72 hrs by MTT assay. It counts as functional, cell-based. Conditions: MCF7, 72 h.
Test [15] has as its system BT-549. Description: Antiproliferative activity against human BT-549 cells assessed as inhibition of cell proliferation incubated for 72 hrs by MTT assay. Conditions: BT-549, 72 h. In kind it is functional, cell-based.
Test [16] deals with 4T1. The test can be described thus: Antiproliferative activity against mouse 4T1 cells assessed as inhibition of cell proliferation incubated for 72 hrs by MTT assay. In kind it is functional, cell-based. Conditions: 4T1, 72 h.
The subject of test [17] is PA-1. The test can be described thus: Antiproliferative activity against human PA-1 cells assessed as reduction in cell viability at 10 uM incubated for 3 days followed by compound washout and measured after 4 days by microscopy analysis. Conditions: time 3.0 day. In kind it is functional, cell-based.
In test [18] the test system is PA-1. The test can be described thus: Antitumor activity against human PA-1 cells xenografted in BALB/C nude mouse assessed as tumor growth inhibition at 150 mg/kg,po BID for 21 days. Conditions: PA-1, 504 h, time 21 day, read-out: TGI. It counts as functional. In general terms: A xenograft is tissue or cells of one species grown in another, often human tumour cells in immunodeficient mice.

For test [19], the system named is A2780. Description: Inhibition of colony formation in human A2780 cells assessed as reduction in number of colonies at 0.25 to 10 uM incubated for 14 days with medium change every 3 days by crystal violet staining method. In kind it is functional, cell-based. Conditions: dose 0.25-10 µM, time 14.0 day.
Test [20] relates to PA-1. Description: Inhibition of colony formation in human PA-1 cells assessed as reduction in number of colonies at 0.25 to 10 uM incubated for 14 days with medium change every 3 days by crystal violet staining method. It counts as functional, cell-based. Particulars: dose 0.25-10 µM, time 14.0 day.
The subject of test [21] is PA-1. The test can be described thus: Inhibition of colony formation in human PA-1 cells assessed as reduction in size of colonies at 0.25 to 10 uM incubated for 14 days with medium change every 3 days by crystal violet staining method. In kind it is functional, cell-based. Conditions: dose 0.25-10 µM, time 14.0 day.
Test [22] has as its target T1, Histone-lysine N-methyltransferase EZH2. The test can be described thus: Inhibition of EZH2 methyltransferase activity in human A2780 cells assessed as reduction in H3K27me3 level incubated for 3 days by Western blot analysis. In kind it is cell-based. Background: In western blotting, separated proteins are transferred to a membrane and probed.
Target sequence in this assay (Q15910 whole entry, the tested form may be a part): as the sequence (Q15910 whole entry, looked up, the tested form may be a part) above
Test [23] relates to A2780. The test can be described thus: Inhibition of colony formation in human A2780 cells assessed as reduction in size of colonies at 0.25 to 10 uM incubated for 14 days with medium change every 3 days by crystal violet staining method. It counts as functional, cell-based. Particulars: dose 0.25-10 µM, time 14.0 day.

`C=CC(=O)NCc1ccc(-c2cc(C(=O)NCc3c4c(c(C)[nH]c3=O)CCCC4)c(C)c(N(CC)C3CCOCC3)c2)cc1`: the outcome in test [1] was inactive. This compound showed an IC50 in [2] of 0.0108 µM.

In the case of `CC[C@H](C)n1cc(C)c2c(C(=O)NCc3c(C)cc(C)[nH]c3=O)cc(-c3ccc(N4CCNCC4)nc3)cc21` [GSK2816126], the IC50 in test [3] was 12 µM; in test [4], 32.2 µM; in test [5], more than 100 µM; in test [6] it was 55.4 µM; in test [7] it was 15.5 µM; in test [8], 12.2 µM. For the same compound, the IC50 in [9] was 23 µM; in test [10], 68.4 µM; in test [11], 29.8 µM; in test [12], more than 100 µM; in [13], more than 100 µM; in [14], 18.8 µM. Besides, the results for the IC50 in [15] and in [16] were 23.3 µM and 10.4 µM, respectively.

Take `CCC(=O)Nc1cccc(-c2cc(C(=O)NCc3c(C)cc(C)[nH]c3=O)c(C)c(N(CC)C3CCOCC3)c2)c1`: the half-maximal inhibitory concentration (IC50) in [3] is 34.4 µM; in test [4], more than 100 µM; in test [5], more than 100 µM; in test [6], more than 100 µM; in [7], more than 100 µM; in test [8] it was more than 100 µM. For the same compound, the IC50 in [9], in test [10], in test [11], in [12], in test [13] and in test [14] was more than 100 µM each time. The IC50 in [15] was more than 100 µM; in [16], 58.4 µM.

Consider `CCN(c1cc(-c2ccc(CN3CCOCC3)cc2)cc(C(=O)NCc2c(C)cc(C)[nH]c2=O)c1C)C1CCOCC1` [TAZEMETOSTAT], for which the IC50 in test [3] is 47 µM; in test [4], 79 µM; in test [5], more than 100 µM; in test [6], more than 100 µM; in test [7], 67.1 µM; in test [8], 46.6 µM. The half-maximal inhibitory concentration (IC50) in [9] was more than 100 µM; in test [10] it was 89.8 µM; in test [11], more than 100 µM; in test [12], more than 100 µM; in test [13] it was more than 100 µM; in [14], more than 100 µM. Moreover, the IC50 in test [15] worked out at 58.2 µM; in [16], 29.3 µM. The outcome in test [17] was inactive. Moreover, in test [18], the inhibition in vivo at 150 mg/kg stood at 56.8%.

As for `C=CC(=O)Nc1cccc(-c2cc(C(=O)NCc3c(C)cc(C)[nH]c3=O)c(C)c(N(CC)C3CCOCC3)c2)c1`, the IC50 was 15.7 µM in test [3]; 38.6 µM in [4]; 66.7 µM in test [5]; 0.00164 µM in test [2]; more than 100 µM in test [6]; 66.2 µM in test [7]. Also, the IC50 in test [8] was 24.7 µM; in test [9] it was 33.3 µM; in [10] it was 41.8 µM; in [11], more than 100 µM; in test [12], 37.4 µM; in test [13], more than 100 µM. In addition, the values for the IC50 in [14], in [15] and in test [16] were 63.3 µM, 60.2 µM and 31 µM, respectively.

With `CCC(=O)Nc1ccc(C)c(-c2cc(C(=O)NCc3c(C)cc(C)[nH]c3=O)c(C)c(N(CC)C3CCOCC3)c2)c1`, the IC50 was 60.4 µM in test [3]; 89.5 µM in test [4]; more than 100 µM in test [5]; 0.00301 µM in [2]; more than 100 µM in test [6]; more than 100 µM in test [7]. Moreover, the IC50 in test [8] was 78.3 µM; in test [22], 4.72 µM; in [9] it was more than 100 µM; in [10] it was more than 100 µM; in [11], more than 100 µM; in [12] it was 69 µM. Also, the IC50 in [13], in test [14], in test [15] and in test [16] was more than 100 µM in each case. Also, the inhibition entry in test [19], in test [20], in test [21] and in [23] was “Dose-Dependent Effect” each time. The outcome in test [17] and in test [1] was inactive.

Regarding `CCOCCNC(=O)/C(C)=C/C[C@@]12OC(C)(C)C3C[C@@H](C=C4C(=O)c5c(O)c(C/C=C(\C)CCC=C(C)C)c(O)c(CC=C(C)C)c5O[C@]431)C2=O` (single isomer, unassigned), in test [2], the IC50 was found to be 1.1 µM.

For orientation: IC50 means the concentration that inhibits the measured activity by half.
